The source of these data is patent US5459152A, “Platelet activating factor antagonists” (Abbott Laboratories, priority 1993, dated 1995).

SMILES strings stand for the structures.

For the first assay, the target named is T1, PAF receptor (Oryctolagus cuniculus, UniProt G1TEI7).
T1 construct: platelet membranes where prepared by centrifugation and washing; tissue Pel-Freez (Rogers, AR) (whole rabbit blood); host or cells: rabbit platelet membranes
T1 sequence (G1TEI7 1-342): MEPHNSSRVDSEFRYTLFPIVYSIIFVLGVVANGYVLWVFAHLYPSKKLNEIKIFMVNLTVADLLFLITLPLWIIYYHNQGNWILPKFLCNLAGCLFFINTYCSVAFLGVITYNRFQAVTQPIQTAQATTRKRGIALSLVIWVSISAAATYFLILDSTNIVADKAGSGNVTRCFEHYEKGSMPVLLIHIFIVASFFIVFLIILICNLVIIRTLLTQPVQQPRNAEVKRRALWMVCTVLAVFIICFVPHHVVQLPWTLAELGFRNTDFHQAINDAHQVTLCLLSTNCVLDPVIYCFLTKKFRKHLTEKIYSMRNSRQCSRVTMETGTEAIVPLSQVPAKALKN
The experiment in a line: PAF receptor binding assay ([3H]C18-PAF, rabbit platelet membranes). Particulars: inhibition of specific binding of 0.6 nM [3H]C18-PAF to rabbit platelet membranes, 60 min, room temperature; Ki calculated from IC50 by Cheng and Prusoff; read-out: PAF Receptor Binding Activity K1. The procedure:
The ability of representative compounds of the present invention to inhibit PAF activity was determined in an in vitro test using the following method.
Citrated whole rabbit blood was obtained from Pel-Freez (Rogers, AR). Rabbit platelets where prepared by centrifugation and washing. The platelets where lysed by freeze-thawing and sonication; platelet membranes where prepared by centrifugation and washing. Final membrane preparations where stored frozen in 10 mM Tris/5 mM MgCl2 /2 mM EDTA (TME buffer, pH 7.0) with 0.25 M sucrose added for membrane stabilization.
The final volume of the assay was 100 μl. The assay was conducted in Millititre-GV™ (Millipore Corp.) filtration plates; incubation time was for 60 minutes at room temperature (22°-23° C.). "Specific binding" was operationally defined as the arithmetic difference between "total binding" of 0.6 nM [^3 H]C18 -PAF (in the absence of added PAF) and "nonspecific binding" (in the presence of 1 μM PAF). After the prescribed incubation, platelet membranes where filtered under vacuum and washed with 1 millilitre of "binding buffer". The filters was dried and removed. The bound radioactivity was quantitated with a Berthold TLC-Linear Analyzer model LB2842.
Experiments where repeated at least once.
With `CN(C)C(=O)n1cc(C(=O)c2ccn3c2CSC3c2cccnc2)c2ccc(-c3cccc(S(N)(=O)=O)c3)cc21` (centres unmarked) [Example 80, 3-(Pyridin-3-yl)-7-[1-N,N-dimethylcarbamoyl-6-(3-aminosulfonylphenyl)indol-3-ylcarbonyl]-1H,3H-pyrrolo[1,2-c]thiazole], the Ki was 0.045 µM.

Staying with this assay, now noted: read-out: PAF Receptor Binding Activity K1.
Consider `NC(=O)n1cc(C(=O)c2ccn3c2CSC3c2cccnc2)c2ccc(-c3ccc(F)cc3)cc21` (centres unmarked) [Example 76, 3-(Pyridin-3-yl)-7-[1-carbamoyl-6-(4-fluorophenyl)indol-3-ylcarbonyl]-1H,3H-pyrrolo[1,2-c]thiazole], for which the Ki turned out to be 0.0061 µM.
The same measure, in the same setting: the result for `NS(=O)(=O)CCn1cc(C(=O)c2ccn3c2CSC3c2ccc[n+]([O-])c2)c2ccc(-c3ccc(F)cc3)cc21` (centres unmarked) [Example 79, 3-(3-Oxide-pyridin-3-yl)-7-[1-(2-aminosulfonylethyl)-6-(4-fluorophenyl)indol-3-ylcarbonyl]-1H,3H-pyrrolo[1,2-c]thiazole] reads 0.018 µM; that for `CNC(=O)Cn1cc(C(=O)c2ccn3c2CSC3c2cccnc2)c2ccc(-c3ccc(F)cc3)cc21` (centres unmarked) [Example 81, 3-(Pyridin-3-yl)-7-[1-(2-N-methylcarbamoylmethyl)-6-(4-fluorophenyl)indol-3-ylcarbonyl]-1H,3H-pyrrolo[1,2-c]thiazole], 0.00112 µM.
`ON=C(c1ccn2c1CSC2c1cccnc1)c1c[nH]c2cc(-c3ccc(F)cc3)ccc12` (centres unmarked) [Example 83, 3-(Pyridin-3-yl)-7-[6-(4-fluorophenyl)indol-3-ylcarbonyloxime]-1H,3H-pyrrolo[1,2-c]thiazole]: the Ki is 0.0107 µM.
For the compound `CN(C)CCN(C)C(=O)n1cc(C(=O)c2ccn3c2CSC3c2cccnc2)c2ccc(-c3ccc(F)cc3)cc21` (centres unmarked) [Example 84, 3-(Pyridin-3-yl)-7-[1-(N-methyl-N-(dimethylaminoethyl))carbamoyl-6-(4-fluorophenyl)indol-3-ylcarbonyl]-1H,3H-pyrrolo[1,2-c]thiazole], the Ki worked out at 0.0069 µM.
On the same count and under the same terms, the figure for `CN(C)C(=O)n1cc(C(=O)c2ccn3c2CSC3c2cccnc2)c2ccc(-c3cnc(N)nc3)cc21` (centres unmarked) [Example 89] is 0.28 µM; for `NCCn1cc(C(=O)c2ccn3c2CSC3c2ccc[n+]([O-])c2)c2ccc(-c3ccc(F)cc3)cc21` (centres unmarked) [Example 90, 3-(1-Oxide-pyridin-3-yl)-7-[1-(2-aminoethyl)-6-(4-fluorophenyl)indol-3-ylcarbonyl]-1H,3H-pyrrolo[1,2-c]thiazole] it is 0.48 µM.
On the same count and under the same terms, the figure for `CN(C)C(=O)n1cc(C(=O)c2ccn3c2CSC3c2cccnc2)c2ccc(-c3ccc(C(=O)NN)cc3)cc21` (centres unmarked) [Example 91, 3-(1-Oxide-pyridin-3-yl)-7-[1-N,N-dimethylcarbamoyl-6-(4-hydrazinylcarbonylphenyl)indol-3-ylcarbonyl]-1H,3H-pyrrolo[1,2-c]thiazole] is 0.02 µM; for `CC(=O)OC[n+]1cccc(C2SCc3c(C(=O)c4cn(C(=O)N(C)C)c5cc(-c6ccc(F)cc6)ccc45)ccn32)c1` (centres unmarked) [Example 92, 3-(1-Acetoxymethylpyridin-3-yl)-7-[1-N,N-dimethylcarbamoyl-6-(4-fluorophenyl)indol-3-ylcarbonyl]-1H,3H-pyrrolo[1,2-c]thiazole] it is 0.019 µM; for `CN(CO)C(=O)Cn1cc(C(=O)c2ccn3c2CSC3c2cccnc2)c2ccc(-c3ccc(F)cc3)cc21` (centres unmarked) [Example 93] it is 0.0008 µM.
As for `N#CCn1cc(C(=O)c2ccn3c2CSC3c2cccnc2)c2ccc(-c3ccc(F)cc3)cc21` (centres unmarked) [Example 94, 3-(Pyridin-3-yl)-7-[1-cyanomethyl-6-(4-fluorophenyl)indol-3-ylcarbonyl]-1H,3H-pyrrolo[1,2-c]thiazole], the Ki stood at 0.04 µM.
The same measure, in the same setting: the figure for `NC(=O)Cn1cc(C(=O)c2ccn3c2CSC3c2cccnc2)c2ccc(-c3ccc(F)cc3)cc21` (centres unmarked) [Example 95, 3-(Pyridin-3-yl)-7-[1-carbamoylmethyl-6-(4-fluorophenyl)indol-3-ylcarbonyl]-1H,3H-pyrrolo[1,2-c]thiazole] is 0.01 µM; for `O=C(c1ccn2c1CSC2c1cccnc1)c1cn(Cc2nnn[nH]2)c2cc(-c3ccc(F)cc3)ccc12` (centres unmarked) [Example 97, 3-(Pyridin-3-yl)-7-[1-(1H-tetrazol-5-ylmethyl)-6-(4-fluorophenyl)indol-3-ylcarbonyl]-1H,3H-pyrrolo[1,2-c]thiazole] it is 0.019 µM; for `CCNC(=O)n1cc(C(=O)c2ccn3c2CSC3c2cccnc2)c2ccc(-c3ccc(F)cc3)cc21` (centres unmarked) [Example 99] it is 0.019 µM.
On the same count and under the same terms, the result for `CN(C)C(=O)n1cc(C(=O)c2ccn3c2CSC3c2cccnc2)c2ccc(-c3cccs3)cc21` (centres unmarked) [Example 101, 3-(Pyridin-3-yl)-7-(1-N,N-dimethylcarbamoyl-6-thiophen-2-ylindol-3-ylcarbonyl)-1H,3H-pyrrolo[1,2-c]thiazole] reads 0.00095 µM; that for `CN(C)C(=O)n1cc(C(=O)c2ccn3c2C[S+]([O-])C3c2ccc[n+]([O-])c2)c2ccc(-c3ccc(F)cc3)cc21` (centres unmarked) [Example 103, 2-Oxide-3-(1-oxide-pyridin-3-yl)-7-[1-N,N-dimethylcarbamoyl-6-(4-fluorophenyl)indole-3-ylcarbonyl]-1H,3H-pyrrolo[1,2-c]thiazole], 0.085 µM.
For the compound `CN(C)C(=O)n1cc(C(=NN)c2ccn3c2CSC3c2cccnc2)c2ccc(-c3ccc(F)cc3)cc21` (centres unmarked) [Example 104], the Ki is 0.0022 µM.
Same read-out and setting: the result for `O=C(c1ccn2c1CSC2c1cccnc1)c1cn(C(=O)NCCc2c[nH]cn2)c2cc(-c3ccc(F)cc3)ccc12` (centres unmarked) [Example 105, 3-(Pyridin-3-yl)-7-[1-N-(2-(4-imidazolyl)ethyl)carbamoyl-6-(4-fluorophenyl)indol-3-ylcarbonyl]-1H,3H-pyrrolo[1,2-c]thiazole] reads 0.0043 µM.
On the same count and under the same terms, the result for `CN(C)C(=O)n1cc(C(=NNC(N)=O)c2ccn3c2CSC3c2cccnc2)c2ccc(-c3ccc(F)cc3)cc21` (centres unmarked) [Example 106, 3-(pyridin-3-yl)-7-[1-N,N-dimethylcarbamoyl-6-(4-fluorophenyl)indol-3-ylcarbonylsemicarbazide]-1H,3H-pyrrolo[1,2-c]thiazole] reads 0.008 µM.
